From patent US6362331B1, “Process for the preparation of antitumor agents” (priority 2001, dated 2002)

Tests used:
[1] = tested on: calf thymus DNA; test: Thermal denaturation with calf thymus DNA; assay type: binding; details: for Induced ΔTm after Incubation at 37° C. for 0 h / Induced ΔTm after Incubation at 37° C. for 18 h: [PBD]:[DNA] molar ratio 1:5; for ΔTm (elevation of helix melting temperature of CT DNA): 1:5 molar ratio (PBD):(DNA), incubation for 18 h at 37° C.
Procedure: (§1) Biological Activity: In vitro anticancer activity studies were carried out at National Caner Institute (USA) and the thermal denaturation of DNA was performed at School of Life Science, University of Hyderabad.
(§2) Table 1: Thermal denaturation with calf thymus DNA^a, at a [PBD]:[DNA]molar ratio of 1:5^b and in vitro one dose primary anticancer assay^c in the NCI-H460, MCF 7 and SF-268 for Vi, wherein R is H; R1 is H, OH or OAc; and n is 3 to 5.

[2] = tested on: NCI-H460 (Lung); test: In vitro one dose primary anticancer assay (NCI), NCI-H460; assay type: cell-based, human
Procedure: as §1, §2
(§3) In this assay, for a 1:5 molar ratio of (PBD):(DNA), one of this mixed imine-amide PBD dimer VI, where n is 5, elevates the helix melting temperature of CT DNA remarkably to 17° C. after incubation for 18 h at 37° C.

[3] = tested on: MCF 7 (Breast); test: In vitro one dose primary anticancer assay (NCI), MCF 7; assay type: cell-based, human
Procedure: as §1, §2, §3

[4] = tested on: SF-268 (CNS); test: In vitro one dose primary anticancer assay (NCI), SF-268; assay type: cell-based, human
Procedure: as §1, §2, §3

[5] = tested on: P388; details: Kaneko et al., J. Med Chem. 1985; cited from earlier work

Structure (SMILES)	Induced ΔTm after Incubation at 37° C. for 0 h [1] [C]	Induced ΔTm after Incubation at 37° C. for 18 h [1] [C]	Growth Percentage (Lung) NCI-H460 [2]	Growth Percentage (Breast) MCF 7 [3]	Growth Percentage (CNS) SF-268 [4]	in vivo antitumour activity [5]	ΔTm (elevation of helix melting temperature of CT DNA) [1] [°C]
COc1cc2c(cc1OCCCOc1cc3c(cc1OC)C(=O)N1CCC[C@H]1C=N3)N=C[C@@H]1CCCN1C2=O [DSB-120, reference compound]	10.2	–	–	–	–	–	–
COc1cc2c(cc1OCCCCOc1cc3c(cc1OC)NC(=O)[C@H]1CCCN1C3=O)N=C[C@@H]1CCCN1C2=O [VI (n is 4)]	5.0	8.5	−16	−41	−81	–	–
COc1cc2c(cc1OC(C)=O)NC(=O)C1C[C@H](OC(C)=O)CN1C2=O (stereo partly drawn) [(7-methoxy-2-methylcarbonyloxy-5,11-dioxo-(2S)-2,3,5,10,11,11a-hexahydro-1H-pyrrolo[2,1-c][1,4]-benzodiazepine-5,11-dione-8-yl acetate]	–	–	–	–	–	significant in vivo antitumour activity	–
COc1cc2c(cc1OCCCOc1cc3c(cc1OC)NC(=O)[C@H]1CCCN1C3=O)N=C[C@@H]1CCCN1C2=O [VI (n is 3)]	6.5	7.0	4	10	11	–	–
COc1cc2c(cc1OCCCCCOc1cc3c(cc1OC)NC(=O)[C@H]1CCCN1C3=O)N=C[C@@H]1CCCN1C2=O [VI (n is 5), 8-methoxy-7-3-[7-methoxy-5-oxo-(11aS)-2,3,4,11a-tetrahydro-1H-pyrrolo[2,1-c][1,4]-benzodiazepine-8-yloxy]pentyloxy-(11aR)-2,3,5,10,11a hexahydro-1H -pyrrolo[2,1-c][1,4]benzodiazepine-5,11-dione]	14.0	17.0	−39	7	−21	–	17
COc1cc2c(cc1O)N=CC1CCCN1C2=O (stereo not drawn) [DC-81, reference compound]	0.3	0.7	–	–	–	–	0.7
